Experimental data: ChEMBL document CHEMBL1122577, “Cardiac glycosides. 1. A systematic study of digitoxigenin D-glycosides” (J Med Chem, 1984)

Assay: Inhibitory activity against Hog kidney Na+, K+ -Dependent ATPase
Design: species or system Sus scrofa
Settings: read-out: I50

`C[C@]12CC[C@H](O[C@H]3C[C@H](O)[C@H](O)[C@H](CO)O3)C[C@@H]1CC[C@@H]1[C@@H]2CC[C@]2(C)[C@@H](C3=CC(=O)OC3)CC[C@@]12O` showed an IC50 of 10.7 nM.

Work on `C[C@]12CC[C@H](O[C@@H]3C[C@H](O)[C@H](O)[C@H](CO)O3)C[C@@H]1CC[C@@H]1[C@@H]2CC[C@]2(C)[C@@H](C3=CC(=O)OC3)CC[C@@]12O` yielded an IC50 of 93.3 nM.

Molecule `C[C@@H]1O[C@@H](O[C@H]2CC[C@@]3(C)[C@@H](CC[C@@H]4[C@@H]3CC[C@]3(C)[C@@H](C5=CC(=O)OC5)CC[C@@]43O)C2)C[C@H](O)[C@@H]1O` has an IC50 of 7.04 nM.

`C[C@]12CC[C@H](O[C@@H]3C[C@@H](O)[C@H](O)[C@H](CO)O3)C[C@@H]1CC[C@@H]1[C@@H]2CC[C@]2(C)[C@@H](C3=CC(=O)OC3)CC[C@@]12O` gave an IC50 of 28.2 nM.

In the case of `C[C@]12CC[C@H](O)C[C@H]1CC[C@@H]1[C@@H]2CC[C@]2(C)[C@@H](C3=CC(=O)OC3)CC[C@]12O` [DIGITOXIGENIN], the IC50 is reported as 117 nM.

With `C[C@@H]1O[C@@H](O[C@H]2CC[C@@]3(C)[C@@H](CC[C@@H]4[C@@H]3CC[C@]3(C)[C@@H](C5=CC(=O)OC5)CC[C@@]43O)C2)C[C@@H]2OC(C)(C)O[C@H]12` the IC50 was 41.8 nM.

Molecule `C[C@]12CC[C@H](O[C@@H]3O[C@@H](CO)[C@@H](O)[C@H](O)[C@@H]3O)CC1CC[C@@H]1[C@@H]2CC[C@]2(C)[C@@H](C3=CC(=O)OC3)CC[C@@]12O` (stereo partly drawn) has an IC50 of 11.7 nM.

Work on `C[C@]12CC[C@H](O[C@@H]3O[C@@H](CO)[C@H](O)[C@H](O)[C@@H]3O)CC1CC[C@@H]1[C@@H]2CC[C@]2(C)[C@@H](C3=CC(=O)OC3)CC[C@@]12O` (stereo partly drawn) yielded an IC50 of 64.5 nM.
